In PMC7128415 (Journal of Clinical Virology, 2004):
In brackets after ≈: the same amount, converted by molar mass. Where two headings read alike, the source gives them in different places.

Columns and labels:
[1] = human, in vivo, po
HIV-1 = details: cited from earlier work
SARS coronavirus [2] = experiment: microbe, parasite or virus in culture; details: Severe acute respiratory syndrome coronavirus, FRhK-4, 48 h, read-out: EC50 at 48 h
[3] = in vivo, cited from earlier work
[4] = system: HIV-1 reverse transcriptase; details: cited from earlier work
SARS coronavirus [5] = experiment: microbe, parasite or virus in culture; format: cell-based; details: Severe acute respiratory syndrome coronavirus, Vero, read-out: EC50 (plaque reduction assay)
in vitro = details: rhesus monkey
SARS coronavirus [6] = system: SARS coronavirus
SARS coronavirus [7] = format: cell-based
various viruses = details: cited from earlier work
SARS-associated virus = details: cited from earlier work
[8] = system: rhinovirus, coronavirus, and respiratory syncytial virus; details: in vivo; cited from earlier work
CMV = details: human, in vivo; cited from earlier work
genital herpes = details: in vivo; cited from earlier work
rhinovirus = details: in vivo; cited from earlier work

For O=C(O)[C@H]1O[C@@H](Oc2cc3oc(-c4ccccc4)cc(=O)c3c(O)c2O)[C@H](O)[C@@H](O)[C@@H]1O [Baicalin, baicalin], the serum concentration [1] is listed as 470 ng/mL, the Antiviral effect (HIV-1) is listed as “Inhibition of HIV-1” and the “inhibition of HIV-1” value (HIV-1) is listed as “shown to inhibit HIV-1”. For the same molecule, the EC50 (SARS coronavirus [2]) was 12.5 to 25 µg/mL (≈ 28 to 56 µM), the “Serum level (after oral administration), Cmax” value ([3]; human, po) was “Cmax = 60 ng/ml (189.8 mg per person, in human). The amount (i.e., 189.8 mg per person) used for the experiment is very low” and the “Half life (in humans)” value ([3]; human) was “∼3 h”. The “Serum level (after intravenous administration), Cmax” value [3] was “Cmax = 74 μg/ml (360 mg per person)”, the “inhibition of HIV-1 reverse transcriptase” value [4] was “known to inhibit HIV-1 reverse transcriptase” and the EC50 (SARS coronavirus [5]) was 11 µg/mL (≈ 24.6 µM). The CC50 (in vitro) was over 100 µg/mL, the “EC50 at 48 h” value (SARS coronavirus [6]) was 12.5 µg/mL (≈ 28 µM) and the “SI = CC50/EC50 at 48 h” value (SARS coronavirus [6]) was over 4 to 8. For the same molecule, the antiviral activities (SARS coronavirus [6]) was “detectable antiviral activities”, the antiviral activity (SARS coronavirus [6]) was “showed antiviral activity” and the “inhibitory activities by neutralization tests” value (SARS coronavirus [6]) was “detectable inhibitory activities”. For the same molecule, the “activity in Vero-E6 cell line compared with fRhK-4” value (“activity … compared with fRhK-4” below) (SARS coronavirus [7]) was “less active”.

In the case of O=C(/C=C/c1ccc(O)c(O)c1)O[C@@H]1C[C@](O)(C(=O)O)C[C@@H](O)[C@H]1O [Chlorogenic acid, chlorogenic acid], the “Serum level (after intravenous administration), Cmax” value [3] is given as “Cmax = 34 μg/ml (24 mg per person)”, the Antiviral effect (various viruses) is given as “Inhibition of various viruses” and the “inhibitory activities in initial screening” value (SARS coronavirus [6]) is given as “not detectable”.

In the case of CC1(C)[C@@H](O[C@H]2O[C@H](C(=O)O)[C@@H](O)[C@H](O)[C@H]2O[C@@H]2O[C@H](C(=O)O)[C@@H](O)[C@H](O)[C@H]2O)CC[C@]2(C)[C@H]3C(=O)C=C4[C@@H]5C[C@@](C)(C(=O)O)CC[C@]5(C)CC[C@@]4(C)[C@]3(C)CC[C@@H]12 [Glycyrrhizin, glycyrrhizin], the EC50 (SARS coronavirus [2]) is given as over 400 µg/mL, the Antiviral effect (SARS-associated virus) is given as “Inhibition of SARS-associated virus” and the “activity in Vero-E6 cell lines” value (SARS-associated virus) is given as “reported to be active”. The “antiviral activity against SARS coronavirus” value (SARS-associated virus) was “significant antiviral activity”, the “Half life (in humans)” value ([3]; human) was “∼10 h” and the “Serum level (after intravenous administration), Cmax” value [3] was “Cmax = 80 μg/ml (200 mg per person)”. For the same molecule, the CC50 (in vitro) was over 400 µg/mL, the antiviral activity (SARS coronavirus [6]) was “showed antiviral activity” and the “inhibitory activities in initial screening” value (SARS coronavirus [6]) was “not detectable”. For the same molecule, the “activity … compared with fRhK-4” value (SARS coronavirus [7]) was “more active”.

Molecule Cc1cccc(C)c1OCC(=O)N[C@@H](Cc1ccccc1)[C@@H](O)C[C@H](Cc1ccccc1)NC(=O)[C@H](C(C)C)N1CCCNC1=O [Lopinavir, lopinavir] has an EC50 (SARS coronavirus [2]) of 1 to 4 µg/mL (≈ 1.59 to 6.36 µM), an EC50 (SARS coronavirus [5]) of 6 µg/mL (≈ 9.54 µM) and a CC50 (in vitro) of 32 µg/mL (≈ 50.9 µM). For the same molecule, the antiviral activities (SARS coronavirus [6]) was “detectable antiviral activities”, the antiviral activity (SARS coronavirus [6]) was “showed antiviral activity” and the “inhibitory activities by neutralization tests” value (SARS coronavirus [6]) was “detectable inhibitory activities”. For the same molecule, the “activity … compared with fRhK-4” value (SARS coronavirus [7]) was “less active”.

For NC(=O)c1ncn([C@@H]2O[C@H](CO)[C@@H](O)[C@H]2O)n1 [Ribavirin, ribavirin], the EC50 (SARS coronavirus [5]) was 50 µg/mL (≈ 205 µM), the CC50 (in vitro) was over 1000 µg/mL and the “SI = CC50/EC50 at 48 h” value (SARS coronavirus [6]) was 5 to >80. The antiviral activities (SARS coronavirus [6]) was “detectable antiviral activities”, the antiviral activity (SARS coronavirus [6]) was “showed antiviral activity” and the “inhibitory activities by neutralization tests” value (SARS coronavirus [6]) was “detectable inhibitory activities”. For the same molecule, the “activity … compared with fRhK-4” value (SARS coronavirus [7]) was “less active”.

Molecule CC(N)C12CC3CC(CC(C3)C1)C2 (stereo not shown) [Rimantadine, rimantadine] has an EC50 (SARS coronavirus [2]) of 8 to 16 µg/mL (≈ 44.6 to 89.2 µM), an EC50 (SARS coronavirus [5]) of 7 µg/mL (≈ 39 µM) and a CC50 (in vitro) of 64 µg/mL (≈ 357 µM). For the same molecule, the “EC50 at 48 h” value (SARS coronavirus [6]) was 16 µg/mL (≈ 89.2 µM), the antiviral activities (SARS coronavirus [6]) was “detectable antiviral activities” and the antiviral activity (SARS coronavirus [6]) was “showed antiviral activity”. The “inhibitory activities by neutralization tests” value (SARS coronavirus [6]) was “detectable inhibitory activities” and the “activity … compared with fRhK-4” value (SARS coronavirus [7]) was “more active”.

For Nc1nc(NC2CC2)c2ncn([C@H]3C=C[C@@H](CO)C3)c2n1 [abacavir], the “inhibitory activities in initial screening” value (SARS coronavirus [6]) was “did not reveal inhibitory activities”.

In the case of Nc1nc2c(ncn2COCCO)c(=O)[nH]1 [acyclovir], the “inhibitory activities in initial screening” value (SARS coronavirus [6]) is reported as “did not reveal inhibitory activities”.

For NC12CC3CC(CC(C3)C1)C2 [amantadine], the “inhibitory activities in initial screening” value (SARS coronavirus [6]) was “did not reveal inhibitory activities”.

In the case of C[C@H]1[C@H](OC(=O)CCC(=O)O)O[C@@H]2O[C@@]3(C)CC[C@H]4[C@H](C)CC[C@@H]1[C@@]24OO3 [artesunate], the “inhibitory activities in initial screening” value (SARS coronavirus [6]) is reported as “not detectable”.

With Nc1ccn(C[C@@H](CO)OCP(=O)(O)O)c(=O)n1 [cidofovir] the “inhibitory activities in initial screening” value (SARS coronavirus [6]) was “did not reveal inhibitory activities”.

For O=C(O)P(=O)(O)O [foscarnet], the “inhibitory activities in initial screening” value (SARS coronavirus [6]) was “did not reveal inhibitory activities”.

With Nc1nc(O)c2ncn(COC(CO)CO)c2n1 [ganciclovir] the “inhibitory activities in initial screening” value (SARS coronavirus [6]) was “did not reveal inhibitory activities”.

In the case of Cc1ccnc2c1NC(=O)c1cccnc1N2C1CC1 [nevirapine], the “inhibitory activities in initial screening” value (SARS coronavirus [6]) is reported as “did not reveal inhibitory activities”.

In the case of CC(C)c1nc(CN(C)C(=O)N[C@H](C(=O)N[C@@H](Cc2ccccc2)C[C@H](O)[C@H](Cc2ccccc2)NC(=O)OCc2cncs2)C(C)C)cs1 [ritonavir], the “inhibitory activities in initial screening” value (SARS coronavirus [6]) is reported as “did not reveal inhibitory activities”.

For Cc1cn([C@H]2C=C[C@@H](CO)O2)c(=O)[nH]c1=O [stavudine], the “inhibitory activities in initial screening” value (SARS coronavirus [6]) was “did not reveal inhibitory activities”.

In the case of Cc1cn([C@H]2C[C@H](N=[N+]=[N-])[C@@H](CO)O2)c(=O)[nH]c1=O [zidovudine], the “inhibitory activities in initial screening” value (SARS coronavirus [6]) is reported as “did not reveal inhibitory activities”.

For interferon-alpha, the “protection against experimental human infection” value [8] is listed as “protect”, the “preventing CMV infections or treating CMV pneumonia” value (CMV) is listed as “not effective” and the “reduction in symptoms or lesion duration of genital herpes” value (genital herpes) is listed as “did not produce a consistent reduction”. For the same molecule, the “protection against rhinovirus-induced common cold” value (rhinovirus) was “protective”.

B1: Interferon-gamma: Interferon-gamma, reported in the literature (protein, UniProt P01579 24-161, looked up)
Interferon gamma: QDPYVKEAENLKKYFNAGHSDVADNGTLFLGILKNWKEESDRKIMQSQIVSFYFKLFKNFKDDQSIQKSVETIKEDMNVKFFNSNKKKRDDFEKLTNYSVTDLNVQRKAIHELIQVMAELSPAAKTGKRKRSQMLFRG
In the case of B1, the “antiviral activity against SARS coronavirus” value (SARS-associated virus) is given as “not to possess antiviral activity”.
